Measurements published in paper PMC10876669, “Substrate promiscuity of inositol 1,4,5-trisphosphate kinase driven by structurally-modified ligands and active site plasticity” (Nature Communications, 2024).
Several values for one entry are separate records, joined by “and”; a condition that tells them apart may be missing. Equal values may be shown once.

Columns and labels:
[1] = biological target: T1, IP3K-KD (human IP3K-KD A isoform, residues 187–461) (Homo sapiens, UniProt P23677); experiment: Fluorescence thermal shift analysis (Tycho NT.6, inflection temperature Ti); type: binding; settings: for Ti, transition 1 (mean inflection temperature) / Ti, transition 2 (mean inflection temperature): 10 μM IP3K-KD, 100 μM chiral or 200 μM racemic ligand, AMP-PNP or ADP, 100 μM MgCl2; for Ti, transition 1 (mean inflection temperature) / Ti, transition 2 (mean inflection temperature) / ΔTi, transition 1 / ΔTi, transition 2: mean ± SD, n=3; for ΔTi, transition 1: Ti minus Ti of apo IP3K-KD (44.4); for ΔTi, transition 2: Ti minus Ti of apo IP3K-KD (53.8); for Transition 1 Ti, individual measurement / Transition 2 Ti, individual measurement: source data of Fig. 6b/6c, single replicates; for Transition 1 Dti (Ti-Ti Apo) / Transition 1 Ti Mean / Transition 2 DTi (Ti-Ti Apo) / Transition 2 Ti Mean: source data of Fig. 6c, N 3; for Binding to IP3K (in words): Fig. 6b,c; for Stabilization of IP3K-KD by ligand (in words): thermal shift, Fig. 6c
T1 construct: human IP3K-KD A isoform (residues 187–461); GST (cleaved yes); made in house; host or cells: Escherichia coli BL21 star (DE3)
Description: (§1) A construct encoding human IP3K-KD A isoform (residues 187–461) into pOPTG vector was used[16]. The protein was expressed in Escherichia coli BL21 star (DE3) strain. Cells were grown at 37 °C to OD600 = 1.0 then induced with 0.4 mM IPTG for 18 h at 16 °C. Protein purification was performed by adapting the reported protocol. Cells were resuspended in buffer A (10 mM Tris pH 7.5 [4 °C], 200 mM NaCl and 2 mM DTT) and disrupted by sonication. Clarified cell lysate was diluted 1/4 in buffer B (10 mM Tris pH 7.5 [4 °C] and 2 mM DTT) and loaded into a 5 mL HiTrap heparin column (GE Healthcare) washed by buffer C (20 mM Tris pH 7.5, 50 mM NaCl and 2 mM DTT), and eluted with a 0.05 M–1 M salt gradient. The eluted sample was subsequently loaded on to a 5 mL glutathione–Sepharose HP column (GE Healthcare), washed with buffer A and eluted with reduced glutathione 10 mM (Sigma-Aldrich) in buffer A. The GST tag was cleaved with home-made TEV (tobacco etch virus) protease overnight at 4 °C, (1:40 TEV/protein mass ratio). After glutathione removal with a PD10 column, the cleaved protein was further purified using a 5 mL glutathione–Sepharose HP column (GE Healthcare) followed by gel filtration on a 16/600 Superdex200 (GE Healthcare) column equilibrated in buffer D (20 mM Tris pH 7.5 [4 °C], 0.05 M (NH4)2SO4 and 2 mM DTT). Protein samples were analyzed by SDS/PAGE, concentrated around 18 mg/mL and stored at −80 °C until use.
Thermal protein denaturation was documented by recording intrinsic protein fluorescence at 330 and 350 nm wavelengths. The fluorescence recorded in each thermal run is plotted as 350/330 nm ratio and used to calculate the Inflection Temperature (Ti). Ti is the temperature at which a protein undergoes a transition in its folding state. This calculation is performed automatically by the Tycho NT.6 software. The protocol optimized for this procedure, involves a heating time of 2 min, a sample volume of 10 μl placed in a very thin capillary, and a temperature ramp from 35 °C (308 K) to 95 °C (368 K). For the experiment, IP3K-KD was diluted with buffer D to achieve a concentration of 0.31 mg/mL (10 μM). It was then mixed with 100 μM of chiral ligands or 200 μM of racemic ligands (all synthesized as stated in this work except InsP3 and InsP4 that were commercial from Avanti Polar Lipids), AMP-PNP (substrate analogues) or ADP (product-like ligands) and 100 μM MgCl2. Microsoft Excel was used to calculate and plot ΔTi values and standard deviations.

[2] = biological target: T1, IP3K-KD (human IP3K-KD A isoform, residues 187–461); experiment: Ligand displacement assay: fluorescence polarization (anisotropy) of 2-FITC-InsP3/IP3K-KD complex; type: binding; settings: for IC50: 100 nM IP3K-KD, 2 nM 2-FITC-InsP3, 20 mM HEPES pH 7.5, 1 mM EDTA, 50 mM KCl, n=4 replicates, 5-s and 5-p racemic, read-out: IC50, displacement of 2-FITC-InsP3 from IP3K-KD; for Kd: estimated Ki (Kd) from IC50 with [2-FITC-InsP3] 2 nM and its Kd 68 nM, read-out: Kd inferred from IC50 (Cheng and Prusoff)
Description: as §1
Binding of a competing/displacing ligand to protein is observed as a decrease in the polarization (anisotropy) of 2-FITC-InsP3. A comparison of the strength of binding of enzyme substrates, analogues and products to IP3K-KD was obtained by measurement of fluorescence polarization (here anisotropy) of 2-FITC-InsP3/IP3K-KD complex. Experimentally, 100 nM IP3K-KD was mixed with 2 nM 2-FITC-InsP3[37] in 20 mM HEPES pH 7.5, 1 mM EDTA and 50 mM KCl with the addition of displacing compounds over a range of 1 nM–50 μM. Assays were analyzed using a ClarioSTAR plate reader and IC50 values determined from fit of the data to a 4-parameter logistic as described. From IC50 values, we have estimated the Ki (Kd) values for the displacing ligands using the equation of Cheng and Prusoff:[69]1 Ki=IC50/1+L/Kd where [L] is the ligand (2-FITC-InsP3) concentration and Kd the dissociation constant for its interaction with IP3K-KD. […] Consequently, the Ki values for the displacing ligands differ trivially from their IC50 values.

IP3K-KD = biological target: T2, IP3K-KD (Homo sapiens, UniProt P23677); experiment: HPLC analysis of IP3K-KD reaction mixtures (substrate test); type: biochemical; settings: 150 nM IP3K-KD, 500 μM analogue, 1 mM ATP, 2 h at 30 °C, Fig. 7a
T2 construct: human IP3K-KD A isoform (residues 187–461); GST (cleaved yes); made in house; host or cells: Escherichia coli BL21 star (DE3)
Description: as §1

T1 sequence (P23677 187-461): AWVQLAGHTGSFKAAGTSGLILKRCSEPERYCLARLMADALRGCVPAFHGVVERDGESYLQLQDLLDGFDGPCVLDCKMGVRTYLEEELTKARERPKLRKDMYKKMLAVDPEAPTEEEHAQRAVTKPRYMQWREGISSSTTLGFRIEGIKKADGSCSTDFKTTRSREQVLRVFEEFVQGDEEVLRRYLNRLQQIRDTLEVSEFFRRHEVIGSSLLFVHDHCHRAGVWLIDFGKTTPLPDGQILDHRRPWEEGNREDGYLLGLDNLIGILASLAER
T2 sequence (P23677 187-461): as above

SMILES	Ti, transition 1 (mean inflection temperature) [1]	Ti, transition 2 (mean inflection temperature) [1]	ΔTi, transition 1 [1]	ΔTi, transition 2 [1]	Transition 1 Ti, individual measurement [1]	Transition 2 Ti, individual measurement [1]	Transition 1 Dti (Ti-Ti Apo) [1]	Transition 1 Ti Mean [1]	Transition 2 DTi (Ti-Ti Apo) [1]	Transition 2 Ti Mean [1]	IC50 [2]	Kd [2] [nM]	Ability to act as IP3K substrate (in words) (IP3K-KD)	Binding to IP3K (in words) [1]	Stabilization of IP3K-KD by ligand (in words) [1]
O=P(O)(O)OC[C@@H]1O[C@H](CO)[C@@H](OP(=O)(O)O)[C@H](OP(=O)(O)O)[C@H]1O [7a–s, β-D-glucopyranosylmethanol 3,4,1’-trisphosphate]	49.7 ± 0.4 ºC	56.1 ± 0.3 ºC	5.3 ± 0.5 ºC	2.3 ± 0.3 ºC	50.2 and 49.5 and 49.4	55.9 and 56.1 and 56.4	5.3	49.7	2.3	56.1	656 nM	637	are also substrates	–	–
O=P(O)(O)O[C@@H]1[C@@H](O)[C@H](OP(=O)(O)O)[C@@H](OP(=O)(O)O)[C@H](OP(=O)(O)O)[C@H]1O [1-p, scyllo-inositol 1,2,3,5-tetrakisphosphate]	54.7 ± 0.2 ºC	59.9 ± 0.2 ºC	10.3 ± 0.3 ºC	6.1 ± 0.2 ºC	54.7 and 54.9 and 54.6	59.7 and 60.0 and 59.9	10.3	54.7	6.1	59.9	51 nM	50	–	–	–
O=P(O)(O)O[C@@H]1[C@H](O)[C@H](O)[C@@H](OP(=O)(O)O)[C@H](OP(=O)(O)O)[C@H]1O [InsP3, D-myo-inositol 1,4,5-trisphosphate, reference compound]	52.9 ± 0.2 ºC	58.2 ± 0.2 ºC	8.5 ± 0.3 ºC	4.4 ± 0.2 ºC	52.8 and 52.9 and 53.1	58.1 (2×) and 58.4	8.5	52.9	4.4	58.2	140 nM and 139 nM	136	–	–	–
O=P(O)(O)O[C@H]1[C@H](O)[C@@H](OP(=O)(O)O)[C@H](OP(=O)(O)O)[C@@H](OP(=O)(O)O)[C@H]1O [InsP4, D-myo-inositol 1,3,4,5-tetrakisphosphate, reference compound]	53.5 ± 0.2 ºC	58.8 ± 0.2 ºC	9.1 ± 0.4 ºC	5.0 ± 0.3 ºC	53.7 and 53.3 and 53.5	59.0 and 58.6 and 58.7	9.1	53.5	5.0	58.8	60 nM	58	–	–	–
CO[C@@H]1O[C@H](CO)[C@@H](O[C@H]2[C@H](O)[C@H](O)[C@@H](OP(=O)(O)O)[C@H](OP(=O)(O)O)[C@H]2O)[C@H]1OP(=O)(O)O [compound 9, D-chiro-inositol ribophostin]	44.5 ± 0.4 ºC	54.5 ± 0.1 ºC	0.1 ± 0.5 ºC	0.7 ± 0.2 ºC	44.2 and 44.9 and 44.5	54.5 (2×) and 54.4	0.133	44.5	0.667	54.5	–	–	–	do not, or barely, bind IP3K	failure to obtain crystal complexes or observe protein stabilization

The next lines start with results.

Ti, transition 1 (mean inflection temperature) [1]	Ti, transition 2 (mean inflection temperature) [1]	ΔTi, transition 1 [1]	ΔTi, transition 2 [1]	Transition 1 Ti, individual measurement [1]	Transition 2 Ti, individual measurement [1]	Transition 1 Dti (Ti-Ti Apo) [1]	Transition 1 Ti Mean [1]	Transition 2 DTi (Ti-Ti Apo) [1]	Transition 2 Ti Mean [1]	IC50 [2]	Kd [2] [nM]	Ability to act as IP3K substrate (in words) (IP3K-KD)	Binding to IP3K (in words) [1]	SMILES	Stabilization of IP3K-KD by ligand (in words) [1]
51.7 ± 0.1 ºC	57.3 ± 0.1 ºC	7.3 ± 0.3 ºC	3.5 ± 0.2 ºC	51.8 and 51.7 (2×)	57.2 and 57.3 (2×)	7.3	51.7	3.5	57.3	–	–	–	–	O=P(O)(O)O[C@@H]1[C@H](O)[C@@H](O)[C@@H](OP(=O)(O)O)[C@H](OP(=O)(O)O)[C@H]1O [4-s, L-chiro-inositol 2,3,5-trisphosphate]	–
53.1 ± 0.3 ºC	58.4 ± 0.2 ºC	8.7 ± 0.4 ºC	4.6 ± 0.2 ºC	53.1 and 52.8 and 53.3	58.2 and 58.5 and 58.4	8.7	53.1	4.6	58.4	–	–	–	–	O=P(O)(O)O[C@@H]1[C@@H](O)[C@@H](O)[C@@H](OP(=O)(O)O)[C@H](OP(=O)(O)O)[C@H]1O [2-s, D-myo-inositol 1,4,6-trisphosphate]	–
44.2 ± 0.2 ºC	54.1 ± 0.1 ºC	-0.2 ± 0.3 ºC	0.3 ± 0.2 ºC	44.2 and 44.1 and 44.4	54.1 (2×) and 54.2	-0.167	44.2	0.333	54.1	–	–	–	do not, or barely, bind IP3K	CO[C@@H]1O[C@H](CO)[C@@H](O[C@H]2O[C@H](CO)[C@@H](OP(=O)(O)O)[C@H](OP(=O)(O)O)[C@H]2O)[C@H]1OP(=O)(O)O [compound 8, ribophostin]	failure to obtain crystal complexes or observe protein stabilization
52.0 ± 0.2 ºC	57.4 ± 0.1 ºC	7.6 ± 0.3 ºC	3.6 ± 0.2 ºC	52.1 and 51.8 and 52.0	57.4 (2×) and 57.5	7.6	52.0	3.6	57.4	–	–	–	–	O=P(O)(O)O[C@@H]1[C@@H](O)[C@H](OP(=O)(O)O)C[C@@H](O)[C@H]1OP(=O)(O)O [3-s, D-3-deoxy-myo-inositol 1,4,6-trisphosphate]	–
